System: HEK293T cells carrying the ATF4 luciferase reporter
Test: ATF4-Luc assay (in vitro model of VWMD)
Format: cell-based, human
Details: Homo sapiens, HEK-293T, 1 μg/mL tunicamycin, 7 hours, One Glo luminescence
Outline: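 Stable HEK293T line expressing firefly luciferase behind the human ATF4 5′-UTR, treated with 1 μg/mL tunicamycin plus compound for 7 hours. Luminescence read with One Glo; EC50 determined.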

`O=C(NC12CC(n3cnc(-c4ccc(F)c(F)c4)c3)(C1)C2)[C@H]1C[C@@H](O)c2cc(Cl)ccc2O1` (racemic) [Compound 149, rac-(2R,4R)-6-chloro-N-{3-[4-(3,4-difluorophenyl)-1H-imidazo-1-yl]bicyclo[1.1.1]pentan-1-yl}-4-hydroxy-3,4-dihydro-2H-1-benzopyran-2-carboxamide] was tested. Which EC50 did it give?
Its EC50 is less than 10 nM.

For `O=C(NC12CCC(C(=O)NCc3ccc(C(F)(F)F)cn3)(CC1)CC2)[C@@H]1C[C@@H](O)c2cc(Cl)ccc2O1` [Compound 193, (2S,4R)-6-chloro-4-hydroxy-N-[4-({[5-(trifluoromethyl)pyridin-2-yl]methyl}carbamoyl)bicyclo[2.2.2]octan-1-yl]-3,4-dihydro-2H-1-benzopyran-2-carboxamide], which EC50 is on record?
Its EC50 is 50 to 250 nM.

How did the EC50 turn out when `O=C(NC12CC(N3CC(c4ccc(Cl)cc4)CC3=O)(C1)C2)[C@H]1C[C@@H](O)c2cc(Cl)ccc2O1` (stereo partly drawn) [Compound 307, (2R,4R)-6-chloro-N-{3-[4-(4-chlorophenyl)-2-oxopyrrolidin-1-yl]bicyclo[1.1.1]pentan-1-yl}-4-hydroxy-3,4-dihydro-2H-1-benzopyran-2-carboxamide] was run?
Its EC50 is less than 10 nM.

With `O=C(COc1ccc(Cl)cc1)NC12CCC(NC(=O)CO[C@H]3C[C@@H](OC(F)(F)F)C3)(CC1)CC2` [Compound 116, 2-(4-chlorophenoxy)-N-[4-(2-{[(1s,3s)-3-(trifluoromethoxy)cyclobutyl]oxy}acetamido)bicyclo[2.2.2]octan-1-yl]acetamide] as the molecule, how does the EC50 read?
The EC50 was less than 10 nM.

Which EC50 does the source give for `O=C(NC12CC(c3nc([C@H]4C[C@@H](OC(F)(F)F)C4)no3)(C1)C2)[C@H]1C[C@@H](O)c2cc(Cl)ccc2O1` [Compound 229, (2R,4R)-6-chloro-4-hydroxy-N-(3-{3-[cis-3-(trifluoromethoxy)cyclobutyl]-1,2,4-oxadiazol-5-yl}bicyclo[1.1.1]pentan-1-yl)-3,4-dihydro-2H-1-benzopyran-2-carboxamide] here?
The EC50 was 10 to 50 nM.

How did the EC50 turn out when `O=C(NC12CC(c3ncc([C@H]4C[C@@H](OC(F)(F)F)C4)[nH]3)(C1)C2)[C@H]1C[C@@H](O)c2cc(Cl)ccc2O1` [Compound 289, (2R,4R)-6-chloro-4-hydroxy-N-(3-{5-[cis-3-(trifluoromethoxy)cyclobutyl]-1H-imidazol-2-yl}bicyclo[1.1.1]pentan-1-yl)-3,4-dihydro-2H-1-benzopyran-2-carboxamide] was run?
Its EC50 is 10 to 50 nM.

For `O=C(CO[C@H]1C[C@@H](OC(F)(F)F)C1)NC12CC(NC(=O)[C@@H]3C[C@H](O)c4cc(Cl)ccc4O3)(C1)C2` [Compound 295, (2S,4S)-6-chloro-4-hydroxy-N-[3-(2-{[cis-3-(trifluoromethoxy)cyclobutyl]oxy}acetamido)bicyclo[1.1.1]pentan-1-yl]-3,4-dihydro-2H-1-benzopyran-2-carboxamide], which EC50 is on record?
The EC50 was 10 to 50 nM.

`O=C(NC12CC(c3cc([C@H]4C[C@@H](OC(F)(F)F)C4)no3)(C1)C2)[C@@H]1C[C@@H](O)c2cc(Cl)ccc2O1` [Compound 268, (2S,4R)-6-chloro-4-hydroxy-N-(3-{3-[cis-3-(trifluoromethoxy)cyclobutyl]-1,2-oxazol-5-yl}bicyclo[1.1.1]pentan-1-yl)-3,4-dihydro-2H-1-benzopyran-2-carboxamide] was tested. Which EC50 did it give?
Its EC50 is 50 to 250 nM.

Which EC50 does the source give for `O=C(N[C@H]1CC[C@H](N2CCN(c3cnc(C(F)F)cn3)C2=O)CC1)[C@H]1C[C@@H](O)c2cc(Cl)ccc2O1` (racemic) [Compound 136, rac-(2R,4R)-6-chloro-N-[(1r,4R)-4-{3-[5-(difluoromethyl)pyrazin-2-yl]-2-oxoimidazolidin-1-yl}cyclohexyl]-4-hydroxy-3,4-dihydro-2H-1-benzopyran-2-carboxamide] here?
Its EC50 is 50 to 250 nM.

How did the EC50 turn out when `O=C(COc1ccc(Cl)c(F)c1)NC1CC2(C1)CN(C(=O)[C@@H]1C[C@H](O)c3cc(Cl)ccc3O1)C2` (racemic) [Compound 145, 2-(4-chloro-3-fluorophenoxy)-N-{2-[rac-(2R,4R)-6-chloro-4-hydroxy-3,4-dihydro-2H-1-benzopyran-2-carbonyl]-2-azaspiro[3.3]heptan-6-yl}acetamide] was run?
Its EC50 is 50 to 250 nM.

For `O=C(COc1ccc(Cl)c(F)c1)NC12CC(NC(=O)[C@H]3C[C@@H](OC(F)(F)F)C3)(C1)C2` [Compound 118, (1s,3s)-N-{3-[2-(4-chloro-3-fluorophenoxy)acetamido]bicyclo[1.1.1]pentan-1-yl}-3-(trifluoromethoxy)cyclobutane-1-carboxamide], which EC50 is on record?
The EC50 was 500 to 2000 nM.

How did the EC50 turn out when `O=C(N[C@H]1CC[C@H](C(=O)N2CC(c3ccc(Cl)cc3)C2)CC1)[C@@H]1C[C@@H](O)c2cc(Cl)ccc2O1` [Compound 178] was run?
The EC50 was 10 to 50 nM.

For `O=C(NC12CC(NC(=O)[C@H]3C[C@@H](OC(F)(F)F)C3)(C1)C2)[C@H]1C[C@@H](O)c2cc(Cl)ccc2O1` [Compound 128, (2R,4R)-6-chloro-4-hydroxy-N-(3-{[(1s,3S)-3-(trifluoromethoxy)cyclobutane-1-carbonyl]amino}bicyclo[1.1.1]pentan-1-yl)-3,4-dihydro-2H-1-benzopyran-2-carboxamide], which EC50 is on record?
The EC50 was 500 to 2000 nM.

How did the EC50 turn out when `O=C(NC12CC(c3cc(-c4ccc(C(F)(F)F)nc4)no3)(C1)C2)[C@H]1C[C@@H](O)c2cc(Cl)ccc2O1` [Compound 250, (2R,4R)-6-chloro-4-hydroxy-N-(3-{3-[6-(trifluoromethyl)pyridin-3-yl]-1,2-oxazol-5-yl}bicyclo[1.1.1]pentan-1-yl)-3,4-dihydro-2H-1-benzopyran-2-carboxamide] was run?
Its EC50 is 50 to 250 nM.

`O=C(COc1ccc(Cl)c(F)c1)N[C@@H]1CC[C@@H](C(=O)N2CC(Oc3ccc(Cl)cc3)C2)OC1` [Compound 120, 2-(4-chloro-3-fluorophenoxy)-N-{(3R,6S)-6-[3-(4-chlorophenoxy)azetidine-1-carbonyl]oxan-3-yl}acetamide] was tested. Which EC50 did it give?
Its EC50 is 10 to 50 nM.

How did the EC50 turn out when `O=C(NC12CCC(C(=O)N[C@H]3C[C@@H](OC(F)(F)F)C3)(CC1)OC2)[C@H]1C[C@@H](O)c2cc(Cl)ccc2O1` [Compound 205, (2R,4R)-6-chloro-4-hydroxy-N-(1-{[cis-3-(trifluoromethoxy)cyclobutyl]carbamoyl}-2-oxabicyclo[2.2.2]octan-4-yl)-3,4-dihydro-2H-1-benzopyran-2-carboxamide] was run?
Its EC50 is 50 to 250 nM.

Which EC50 does the source give for `O=C1C[C@H](C(=O)NC23CC(N4CCN(c5ccc(Cl)cc5)C4=O)(C2)C3)Oc2ccc(Cl)cc21` [Compound 179, (2R)-6-chloro-N-{3-[3-(4-chlorophenyl)-2-oxoimidazolidin-1-yl]bicyclo[1.1.1]pentan-1-yl}-4-oxo-3,4-dihydro-2H-1-benzopyran-2-carboxamide] here?
The EC50 was 50 to 250 nM.

With `O=C(NC12CC(N3CC([C@H]4C[C@@H](OC(F)(F)F)C4)OC3=O)(C1)C2)[C@H]1C[C@@H](O)c2cc(Cl)ccc2O1` (stereo partly drawn) [Compound 267, (2R,4R)-6-chloro-4-hydroxy-N-(3-{2-oxo-5-[cis-3-(trifluoromethoxy)cyclobutyl]-1,3-oxazolidin-3-yl}bicyclo[1.1.1]pentan-1-yl)-3,4-dihydro-2H-1-benzopyran-2-carboxamide] as the molecule, how does the EC50 read?
The EC50 was 50 to 250 nM.

How did the EC50 turn out when `O=C(COc1ccc(Cl)c(F)c1)N[C@H]1CC[C@H](NC(=O)C2CC(O)c3cc(Cl)ccc3O2)CC1` (stereo partly shown) [Compound 141, 6-chloro-N-{(1r,4r)-4-[2-(4-chloro-3-fluorophenoxy)acetamido]cyclohexyl}-4-hydroxy-3,4-dihydro-2H-1-benzopyran-2-carboxamide] was run?
Its EC50 is 10 to 50 nM.

— patent US20200347043A1, “MODULATORS OF THE INTEGRATED STRESS PATHWAY” (Calico Life Sciences LLC, priority 2019, published 2020)
